Results on twelve compounds are retold here after patent US9328138B2 (priority 2011, dated 2016).

Usually Ki stands for the dissociation constant of the complex between target and ligand, obtained from inhibition or displacement. The low end stands for a stronger hold on the target, the high end for a looser hold on the target.

The target in assay [1] is HCV NS3 protease genotype 3a (3A-1) (Hepatitis C virus genotype 3a, UniProt Q81258). In words: HCV NS3 protease time-resolved fluorescence (TRF) assay, genotype 3a. The settings on record: Ki 3a. The assay is classed as biochemical. Summed up:
(§1)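 NS3/NS4A protease was pre-incubated 10 min with inhibitor in 50 mM HEPES pH 7.5, 150 mM NaCl, 15% glycerol, 0.15% Triton X-100, 10 mM DTT, 0.1% PEG 8000. TRF peptide substrate (25 nM final) was hydrolysed for 6 h at room temperature. IC50 came from four-parameter fits.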

Assay [2] concerns the target T1, HCV genotype 1b (BK) NS3 modified enzyme with a R155K mutation (Hepatitis C virus genotype 1b, UniProt P26663, R1181K).
T1 construct: HCV genotype 1b (BK) NS3 modified enzyme
In words: HCV NS3 protease time-resolved fluorescence (TRF) assay, genotype 1b R155K. The assay is classed as biochemical. The settings on record: Ki 1b R155K. Summed up: as §1

The mark [3] stands for this setting: genotype 1b (BK) NS3 R155K, single value.
[4] abbreviates: first of two values printed in the cell (not explained).
Setting [5] is: second of two values printed in the cell (not explained).

Counter-ions that a name gives are not always drawn.

For the compound `C=C[C@@H]1C[C@]1(NC(=O)[C@@H]1C[C@@H]2CN1C(=O)[C@H](C(C)(C)C)NC(=O)O[C@@H]1C[C@H]1CCCCCc1c(nc3ccccc3c1OCCCN(C)Cc1n[nH]c(=O)[nH]1)O2)C(=O)NS(=O)(=O)C1(C)CC1` [Example 199, (1aR,5S,8S,10R,22aR)-5-tert-butyl-N-[(1R,2S)-2-ethenyl-1-{[(1-methylcyclopropyl)sulfonyl]carbamoyl}cyclopropyl]-17-(3-{methyl[(5-oxo-4,5-dihydro-1H-1,2,4-triazol-3-yl)methyl]amino}propoxy)-3,6-dioxo-1,1a,3,4,5,6,9,10,18,19,20,21, 22,22a-tetradecahydro-8H-7,10-methanocyclopropa[18,19][1,10,3,6] dioxadiazacyclononadecino[11,12-b] quinoline-8-carboxamide], the Ki in assay [1] worked out at 0.74 nM; in assay [2] (setting [3]) it was 0.057 nM.
`C=C[C@@H]1C[C@]1(NC(=O)[C@@H]1C[C@@H]2CN1C(=O)[C@H](C1CCCCC1)NC(=O)O[C@@H]1C[C@H]1CCCCCc1c(nc3ccccc3c1OC1CCN(CC(F)(F)F)CC1)O2)C(=O)NS(=O)(=O)C1(C)CC1` [Example 236, 4-{[(1aR,5S,8S,10R,22aR)-5-cyclohexyl-8-{[(1R,2S)-2-ethenyl-1-{[(1-methylcyclopropyl)sulfonyl]carbamoyl}cyclopropyl]carbamoyl}-3,6-dioxo-1,1a,3,4,5,6,9,10,18,19,20,21,22,22a-tetradecahydro-8H-7,10-methanocyclopropa[18,19][1,10,3,6]dioxadiazacyclononadecino[11,12-b]quinolin-17-yl]oxy}-1-(2,2,2-trifluoroethyl)piperidinium formate]: the values for the Ki in assay [1], in assay [2] (setting [4]) and in assay [2] (setting [5]) were 110 nM, 0.33 nM and 5.44 nM, respectively.
Consider `C=C[C@@H]1C[C@]1(NC(=O)[C@@H]1C[C@@H]2CN1C(=O)[C@H](C1CCCC1)NC(=O)O[C@@H]1CCC[C@H]1CC/C=C/Cc1c(nc3ccccc3c1O)O2)C(=O)NS(=O)(=O)C1CC1` [Example 17, (3aR,7S,10S,12R,21E,24aS)-7-cyclopentyl-N-{(1R,2S)-1-[(cyclopropylsulfonyl)carbamoyl]-2-ethenylcyclopropyl}-19-hydroxy-5,8-dioxo-1,2,3,3a,5,6,7,8,11,12,20,23,24,24a-tetradecahydro-10H-9,12-methanocyclopenta[18,19][1,10,3,6]dioxadiazacyclononadecino[11,12-b]quinoline-10-carboxamide], for which the results for the Ki in assay [1] and in assay [2] (setting [3]) were 0.45 nM and less than 0.016 nM, respectively.
Consider `C=C[C@@H]1C[C@]1(NC(=O)[C@@H]1C[C@@H]2CN1C(=O)[C@H](C(C)(C)C)NC(=O)O[C@@H]1C[C@H]1CCCCCc1c(nc3ccccc3c1OC1C3COCC1CN(CC1CC1)C3)O2)C(=O)NS(=O)(=O)C1(C)CC1` (stereo partly drawn) [Example 256, 9-{[(1aR,5S,8S,10R,22aR)-5-tert-butyl-8-{[(1R,2S)-2-ethenyl-1-{[(1-methylcyclopropyl)sulfonyl]carbamoyl}cyclopropyl]carbamoyl}-3,6-dioxo-1,1a,3,4,5,6,9,10,18,19,20,21,22,22a-tetradecahydro-8H-7,10-methanocyclopropa[18,19][1,10,3,6]dioxadiazacyclononadecino[11,12-b]quinolin-17-yl]oxy}-7-(cyclopropylmethyl)-3-oxa-7-azoniabicyclo[3.3.1]nonane formate], for which the Ki amounted to 5.45 nM in assay [1], 0.021 nM in assay [2] (setting [4]) and 0.122 nM in assay [2] (setting [5]).
`C=C[C@@H]1C[C@]1(NC(=O)[C@@H]1C[C@@H]2CN1C(=O)[C@H](C1CCCC1)NC(=O)O[C@@H]1CCC[C@H]1CC/C=C/Cc1c(nc3ccccc3c1OCc1ccccc1)O2)C(=O)NS(=O)(=O)C1CC1` [Example 8, (3aR,7S,10S,12R,21E,24aS)-19-(benzyloxy)-7-cyclopentyl-N-{(1R,2S)-1-[(cyclopropylsulfonyl)carbamoyl]-2-ethenylcyclopropyl}-5,8-dioxo-1,2,3,3a,5,6,7,8,11,12,20,23,24,24a-tetradecahydro-10H-9,12-methanocyclopenta[18,19][1,10,3,6] dioxadiazacyclononadecino[11,12-b]quinoline-10-carboxamide]: the inhibition constant Ki in assay [1] worked out at 51 nM; in assay [2] (setting [3]), 1.6 nM.
Turning to `C=C[C@@H]1C[C@]1(NC(=O)[C@@H]1C[C@@H]2CN1C(=O)[C@H](C(C)(C)C)NC(=O)O[C@@H]1CCC[C@H]1CCCCCc1c(nc3ccccc3c1OCCN1CCOCC1)O2)C(=O)NS(=O)(=O)C1(C(C)(C)O)CC1` [Example 108, (3aR,7S,10S,12R,24aR)-7-tert-butyl-N-[(1R,2S)-2-ethenyl-1-({[1-(2-hydroxypropan-2-yl)cyclopropyl]sulfonyl}carbamoyl)cyclopropyl]-19-[2-(morpholin-4-yl)ethoxy]-5,8-dioxo-1,2,3,3a,5,6,7,8,11, 12,20,21,22,23,24,24a-hexadeca hydro-10H-9,12-methanocyclopenta [18,19][1,10,3,6]dioxadiaza-cyclononadecino [11,12-b]quinoline-10-carboxamide], the Ki was found to be 23 nM in assay [1] and 0.93 nM in assay [2] (setting [3]).
For `C=C[C@@H]1C[C@]1(NC(=O)[C@@H]1C[C@@H]2CN1C(=O)[C@H](C(C)(C)C)NC(=O)O[C@@H]1C[C@H]1CCCCCc1c(nc3ccccc3c1OCCCNC1CCOCC1)O2)C(=O)NS(=O)(=O)C1(C)CC1` [Example 181, (1aR,5S,8S,10R,22aR)-5-tert-butyl-N-[(1R,2S)-2-ethenyl-1-{[(1-methylcyclopropyl)sulfonyl]carbamoyl}cyclopropyl]-3,6-dioxo-17-[3-(tetrahydro-2H-pyran-4-ylamino)propoxy]-1,1a,3,4,5,6,9,10,18, 19,20,21,22,22a-tetradecahydro-8H-7,10-methanocyclopropa[18,19][1,10,3,6] dioxadiazacyclononadecino[11,12-b] quinoline-8-carboxamide], the results for the Ki in assay [1] and in assay [2] (setting [3]) were 0.78 nM and 0.065 nM, respectively.
In the same order, the values of `C=C[C@@H]1C[C@]1(NC(=O)[C@@H]1C[C@@H]2CN1C(=O)[C@H](C(C)(C)C)NC(=O)O[C@@H]1C[C@H]1CCCCCc1c(nc3ccccc3c1OCCCN(C)C(C)C(O)c1ccccc1)O2)C(=O)NS(=O)(=O)C1(C)CC1` (stereo partly drawn) [Example 190, (1aR,5S,8S,10R,22aR)-5-tert-butyl-N-[(1R,2S)-2-ethenyl-1-{[(1-methylcyclopropyl)sulfonyl]carbamoyl}cyclopropyl]-17-{3-[(1-hydroxy-1-phenylpropan-2-yl)(methyl)amino]propoxy}-3,6-dioxo-1,1a,3,4,5,6,9,10,18,19,20,21,22,22a-tetradecahydro-8H-7,10-methanocyclopropa[18,19][1,10,3,6] dioxadiazacyclononadecino[11,12-b] quinoline-8-carboxamide] are 1.5 nM and 0.074 nM.
In the same order, the values of `C=C[C@@H]1C[C@]1(NC(=O)[C@@H]1C[C@@H]2CN1C(=O)[C@H](C1CCCC1)NC(=O)N1CC[C@@H](C1)OCCCCCCc1c(nc3ccccc3c1OCC)O2)C(=O)NS(=O)(=O)C1CC1` [Example 33, (2R,4S,7S,13S)-7-cyclopentyl-N-{(1R,2S)-1-[(cyclopropylsulfonyl)carbamoyl]-2-ethenylcyclopropyl}-21-ethoxy-6,9-dioxo-3,4,6,7,8,9,12, 13,15,16,17,18,19,20-tetradecahydro-2H,11H-2,5:10,13-dimethano[1,14,5,7,10]dioxatriazacyclo docosino[15,16-b]quinoline-4-carboxamide] are 22 nM and 0.32 nM.
The corresponding values for `C=C[C@@H]1C[C@]1(NC(=O)[C@@H]1C[C@@H]2CN1C(=O)[C@H](C1CCCC1)NC(=O)O[C@@H]1CCC[C@H]1CC/C=C/Cc1c(nc3ccccc3c1OCC)O2)C(=O)NS(=O)(=O)C1CC1` [Example 1, (3aR,7S,10S,12R,21E,24aS)-7-cyclopentyl-N-{(1R,2S)-1-[(cyclopropylsulfonyl)carbamoyl]-2-ethenylcyclopropyl}-19-ethoxy-5,8-dioxo-1,2,3,3a,5,6,7,8,11,12,20,23,24,24a-tetradecahydro-10H-9,12-methanocyclopenta[18,19][1,10,3,6]dioxadiazacyclononadecino[11,12-b]quinoline-10-carboxamide] are 6.1 nM and 0.25 nM.
For `C=C[C@@H]1C[C@]1(NC(=O)[C@@H]1C[C@@H]2CN1C(=O)[C@H](C1CCCC1)NC(=O)O[C@@H]1CCC[C@H]1CCCCCc1c(nc3ccccc3c1O)O2)C(=O)NS(=O)(=O)C1CC1` [Example 34, (3aR,7S,10S,12R,24aR)-7-cyclo pentyl-N-{(1R,2S)-1-[(cyclopropylsulfonyl)carbamoyl]-2-ethenylcyclopropyl}-19-hydroxy-5,8-dioxo-1,2,3,3a,5,6,7,8,11,12,20,21,22,23,24,24a-hexadecahydro-10H-9,12-methanocyclopenta [18,19][1,10,3,6]dioxadiazacyclononadecino [11,12-b]quinoline-10-carboxamide], the Ki in assay [1] stood at 1.8 nM; in assay [2] (setting [3]), 0.1 nM.
Consider `C=C[C@@H]1C[C@]1(NC(=O)[C@@H]1C[C@@H]2CN1C(=O)[C@H](C1CCCC1)NC(=O)O[C@@H]1CCC[C@H]1CC/C=C/Cc1c(nc3ccccc3c1OCCOC)O2)C(=O)NS(=O)(=O)C1CC1` [Example 46, (3aR,7S,10S,12R,21E,24aS)-7-cyclopentyl-N-{(1R,2S)-1-[(cyclopropylsulfonyl)carbamoyl]-2-ethenylcyclopropyl}-19-(2-methoxyethoxy)-5,8-dioxo-1,2,3,3a,5,6,7,8,11,12,20,23,24,24a-tetradecahydro-10H-9,12-methanocyclopenta[18,19][1,10,3,6] dioxadiazacyclononadecino[11,12-b] quinoline-10-carboxamide], for which the Ki in assay [1] is 4 nM; in assay [2] (setting [3]), 0.15 nM.
